Test results from ChEMBL document CHEMBL3885861, “Open TG-GATES”.

Organism: Rattus norvegicus
Assay: Open TG-GATES - Regimen: Single
Type: toxicity, organism-based, Sprague-Dawley
Parameters: regimen Single, gender Male, age 6 weeks
Details: in vivo, po, route gavage; for gamma-GTP / ALP / AST / CRE / DBIL / GLC / IP / K / LDH / Na / PL / RALB / TBIL / TC / TP: tissue Plasma; for Bas / Eos / Lym / MCHC / MCV / Mono / Neu / RBC / Ret / WBC: tissue Blood; for KIDNEY_L / KIDNEY_R / KIDNEY_TOTAL: tissue Kidney; for LIVER: tissue Liver
[1] = 200 mg/kg, 3 h, dose level Middle
[2] = 200 mg/kg, 6 h, dose level Middle
[3] = 200 mg/kg, 9 h, dose level Middle
[4] = 200 mg/kg, 24 h, dose level Middle
[5] = 600 mg/kg, 3 h, dose level High
[6] = 600 mg/kg, 6 h, dose level High
[7] = 600 mg/kg, 9 h, dose level High
[8] = 600 mg/kg, 24 h, dose level High

Compound CS(=O)(=O)O.Cc1ccc(NC(=O)c2ccc(CN3CCN(C)CC3)cc2)cc1Nc1nccc(-c2cccnc2)n1 [IMATINIB MESYLATE] has a gamma-GTP (60 mg/kg, 24 h, dose level Low) of 0.9 IU/L, a Bas [1] of 0% and an Eos [1] of 0.6%. For the same compound, the Lym [1] was 76.2%, the MCHC [1] was 32.5% and the MCV [1] was 63 fL. It also gave a Mono [1] of 2.4%, a Neu [1] of 19.8% and an RBC [1] of 602.4 x10_4/ul. It also gave a Ret [1] of 10.1%, a WBC [1] of 94 x10_2/uL and a KIDNEY_L [1] of 0.8 g. It also gave a KIDNEY_R [1] of 0.9 g, a KIDNEY_TOTAL [1] of 1.7 g and an LIVER [1] of 8.5 g. For the same compound, the ALP [1] was 1473.2 IU/L, the AST [1] was 86.2 IU/L and the CRE [1] was 0.2 mg/dL. The DBIL [1] was 0.014 mg/dL, the GLC [1] was 185 mg/dL and the IP [1] was 8.5 mg/dL. The K [1] was 3.9 meq/L, the LDH [1] was 224.6 IU/L and the Na [1] was 142.7 meq/L. The PL [1] was 131.8 mg/dL, the RALB [1] was 4 g/dL and the TBIL [1] was 0.042 mg/dL. For the same compound, the TC [1] was 75.8 mg/dL, the TP [1] was 5.4 g/dL and the gamma-GTP [1] was 0.8 IU/L. It also gave a Bas [2] of 0%, an Eos [2] of 0% and a Lym [2] of 75.8%. The MCHC [2] was 32.7%, the MCV [2] was 63 fL and the Mono [2] was 1.8%. For the same compound, the Neu [2] was 21.6%, the RBC [2] was 605.6 x10_4/ul and the Ret [2] was 9.4%. The WBC [2] was 92.8 x10_2/uL, the KIDNEY_L [2] was 0.9 g and the KIDNEY_R [2] was 0.9 g. For the same compound, the KIDNEY_TOTAL [2] was 1.8 g, the LIVER [2] was 8.3 g and the ALP [2] was 1397.4 IU/L. For the same compound, the AST [2] was 83.8 IU/L, the CRE [2] was 0.2 mg/dL and the DBIL [2] was 0.014 mg/dL. The GLC [2] was 184.2 mg/dL, the IP [2] was 9.1 mg/dL and the K [2] was 3.8 meq/L. For the same compound, the LDH [2] was 187.4 IU/L, the Na [2] was 139.7 meq/L and the PL [2] was 147.6 mg/dL. The RALB [2] was 4 g/dL, the TBIL [2] was 0.046 mg/dL and the TC [2] was 81.6 mg/dL. The TP [2] was 5.4 g/dL, the gamma-GTP [2] was 0.8 IU/L and the Bas [3] was 0%. It also gave an Eos [3] of 0%, a Lym [3] of 78.6% and an MCHC [3] of 33.1%. For the same compound, the MCV [3] was 64.1 fL, the Mono [3] was 1% and the Neu [3] was 19.2%. For the same compound, the RBC [3] was 566.4 x10_4/ul, the Ret [3] was 10.1% and the KIDNEY_L [3] was 0.9 g. The KIDNEY_R [3] was 0.9 g, the KIDNEY_TOTAL [3] was 1.8 g and the LIVER [3] was 7.8 g. The ALP [3] was 1450.6 IU/L, the AST [3] was 80.6 IU/L and the CRE [3] was 0.2 mg/dL. The DBIL [3] was 0.016 mg/dL, the GLC [3] was 180 mg/dL and the IP [3] was 9 mg/dL. It also gave a K [3] of 4 meq/L, an LDH [3] of 197.8 IU/L and a Na [3] of 139.8 meq/L. For the same compound, the PL [3] was 145.8 mg/dL, the RALB [3] was 4.2 g/dL and the TBIL [3] was 0.062 mg/dL. For the same compound, the TC [3] was 82.6 mg/dL, the TP [3] was 5.5 g/dL and the gamma-GTP [3] was 0.9 IU/L. The Bas [4] was 0%, the Eos [4] was 0.6% and the Lym [4] was 81%. For the same compound, the MCHC [4] was 33%, the MCV [4] was 63.9 fL and the Mono [4] was 1.2%. The Neu [4] was 16.2%, the RBC [4] was 583.2 x10_4/ul and the Ret [4] was 7.9%. It also gave a WBC [4] of 97.7 x10_2/uL, a KIDNEY_L [4] of 0.9 g and a KIDNEY_R [4] of 0.9 g. It also gave a KIDNEY_TOTAL [4] of 1.8 g, an LIVER [4] of 8.6 g and an ALP [4] of 1768.2 IU/L. It also gave an AST [4] of 98.4 IU/L, a CRE [4] of 0.2 mg/dL and a DBIL [4] of 0.008 mg/dL. It also gave a GLC [4] of 180.4 mg/dL, an IP [4] of 7.5 mg/dL and a K [4] of 4 meq/L. It also gave an LDH [4] of 181.8 IU/L, a Na [4] of 143 meq/L and a PL [4] of 148.4 mg/dL. It also gave an RALB [4] of 4.1 g/dL, a TBIL [4] of 0.042 mg/dL and a TC [4] of 79 mg/dL. The TP [4] was 5.8 g/dL, the gamma-GTP [4] was 0.8 IU/L and the Bas [5] was 0%. It also gave an Eos [5] of 1%, a Lym [5] of 74.2% and an MCHC [5] of 32.7%. The MCV [5] was 63.3 fL, the Mono [5] was 2.6% and the Neu [5] was 22.2%. The RBC [5] was 595.8 x10_4/ul, the Ret [5] was 9.3% and the WBC [5] was 88.6 x10_2/uL. For the same compound, the KIDNEY_L [5] was 0.9 g, the KIDNEY_R [5] was 0.9 g and the KIDNEY_TOTAL [5] was 1.8 g. The LIVER [5] was 8.9 g, the ALP [5] was 1505 IU/L and the AST [5] was 86 IU/L. The CRE [5] was 0.2 mg/dL, the DBIL [5] was 0.01 mg/dL and the GLC [5] was 185.4 mg/dL. The IP [5] was 9 mg/dL, the K [5] was 3.9 meq/L and the LDH [5] was 244.6 IU/L. It also gave a Na [5] of 143.3 meq/L, a PL [5] of 138.4 mg/dL and an RALB [5] of 4.2 g/dL. It also gave a TBIL [5] of 0.044 mg/dL, a TC [5] of 79 mg/dL and a TP [5] of 5.6 g/dL. For the same compound, the gamma-GTP [5] was 0.8 IU/L, the Bas [6] was 0% and the Eos [6] was 0.8%. For the same compound, the Lym [6] was 67.8%, the MCHC [6] was 33.1% and the MCV [6] was 63.5 fL. The Mono [6] was 1.6%, the Neu [6] was 28.6% and the RBC [6] was 589.6 x10_4/ul. The Ret [6] was 8.9%, the WBC [6] was 104.9 x10_2/uL and the KIDNEY_L [6] was 0.9 g. For the same compound, the KIDNEY_R [6] was 0.9 g, the KIDNEY_TOTAL [6] was 1.8 g and the LIVER [6] was 7.9 g. For the same compound, the ALP [6] was 1661.2 IU/L, the AST [6] was 88.2 IU/L and the CRE [6] was 0.2 mg/dL. It also gave a DBIL [6] of 0.016 mg/dL, a GLC [6] of 180.4 mg/dL and an IP [6] of 8.9 mg/dL. It also gave a K [6] of 3.9 meq/L, an LDH [6] of 553.8 IU/L and a Na [6] of 140 meq/L. For the same compound, the PL [6] was 159.4 mg/dL, the RALB [6] was 4.1 g/dL and the TBIL [6] was 0.048 mg/dL. It also gave a TC [6] of 91.6 mg/dL, a TP [6] of 5.3 g/dL and a gamma-GTP [6] of 0.8 IU/L. The Bas [7] was 0%, the Eos [7] was 0% and the Lym [7] was 72.2%. The MCHC [7] was 32.6%, the MCV [7] was 63.6 fL and the Mono [7] was 1.6%. The Neu [7] was 25.2%, the RBC [7] was 592.6 x10_4/ul and the Ret [7] was 9.7%. It also gave a KIDNEY_L [7] of 0.9 g, a KIDNEY_R [7] of 0.9 g and a KIDNEY_TOTAL [7] of 1.8 g. For the same compound, the LIVER [7] was 7.8 g, the ALP [7] was 1627 IU/L and the AST [7] was 85 IU/L. It also gave a CRE [7] of 0.2 mg/dL, a DBIL [7] of 0.016 mg/dL and a GLC [7] of 183.2 mg/dL. It also gave an IP [7] of 8.8 mg/dL, a K [7] of 3.8 meq/L and an LDH [7] of 180.8 IU/L. It also gave a Na [7] of 140.1 meq/L, a PL [7] of 140.8 mg/dL and an RALB [7] of 4.2 g/dL. The TBIL [7] was 0.054 mg/dL, the TC [7] was 78 mg/dL and the TP [7] was 5.5 g/dL. It also gave a gamma-GTP [7] of 0.8 IU/L, a Bas [8] of 0% and an Eos [8] of 0.8%. It also gave a Lym [8] of 76.4%, an MCHC [8] of 33.1% and an MCV [8] of 62.5 fL. It also gave a Mono [8] of 2%, a Neu [8] of 20.4% and an RBC [8] of 584.2 x10_4/ul. It also gave a Ret [8] of 7.5%, a WBC [8] of 80.4 x10_2/uL and a KIDNEY_L [8] of 0.9 g. It also gave a KIDNEY_R [8] of 0.9 g, a KIDNEY_TOTAL [8] of 1.9 g and an LIVER [8] of 7.8 g. It also gave an ALP [8] of 1838.6 IU/L, an AST [8] of 118.4 IU/L and a CRE [8] of 0.2 mg/dL. For the same compound, the DBIL [8] was 0.016 mg/dL, the GLC [8] was 175.2 mg/dL and the IP [8] was 7.8 mg/dL. It also gave a K [8] of 4.1 meq/L, an LDH [8] of 227.6 IU/L and a Na [8] of 141.8 meq/L. The PL [8] was 131.4 mg/dL, the RALB [8] was 4 g/dL and the TBIL [8] was 0.072 mg/dL. For the same compound, the TC [8] was 72.6 mg/dL, the TP [8] was 5.6 g/dL and the gamma-GTP [8] was 0.9 IU/L.
